“Also recorded” adds a separate entry of the source.
Legend:
HUVEC and HCMEC = test: Differentiation of treated endothelial cells in osteogenic, chondrogenic or adipogenic culture medium; type: cell-based, human; conditions: for alkaline phosphatase staining (osteoblasts) / alizarin red staining (matrix calcification) / gene expression of osteocalcin, osterix, COL2A1, SOX9, adiponectin, PPARγ2 (real-time quantitative PCR) / TIE2 expression in osteoblasts, chondrocytes and adipocytes derived from endothelial cells (immunoblotting): 48 hours treatment; for alkaline phosphatase staining (osteoblasts): then 7 days osteogenic medium; for alizarin red staining (matrix calcification): then 21 days osteogenic medium; for gene expression of osteocalcin, osterix, COL2A1, SOX9, adiponectin, PPARγ2 (real-time quantitative PCR): then osteogenic 7 days, chondrogenic 14 days or adipogenic 7 days, compared to vehicle; for differentiation by alkaline phosphatase, alizarin red, alcian blue or oil red O staining / protein expression of osterix, SOX9 and PPARγ2 (immunoblotting) / expression of endothelial markers TIE2, vWF, VE-cadherin, TIE1 in osteoblasts, chondrocytes, adipocytes derived from endothelial cells (immunoblot): 48 h treatment; for differentiation by alkaline phosphatase, alizarin red, alcian blue or oil red O staining: then differentiation medium 7-21 d; for protein expression of osterix, SOX9 and PPARγ2 (immunoblotting): then osteogenic 7 d, chondrogenic 14 d or adipogenic 7 d; for TIE2 expression in osteoblasts, chondrocytes and adipocytes derived from endothelial cells (immunoblotting) / expression of endothelial markers TIE2, vWF, VE-cadherin, TIE1 in osteoblasts, chondrocytes, adipocytes derived from endothelial cells (immunoblot): HCMEC, then differentiation medium
Method: RNA extractions were performed using the RNeasy Mini kit (Qiagen) and protocol. RNA samples were submitted to a core facility (Biopolymers Facility, Department of Genetics, Harvard Medical School) where real-time PCR experiments were conducted using the Syber Green PCR system (ABI) on an ABI 7500 cycler, with 40 cycles per sample. Cycling temperatures were as follows: denaturing 95° C.; annealing 60° C.; extension, 70° C. The following primers (Integrated DNA Technologies) were used: […]
Cells were grown in StemPro osteogenic, chondrogenic, or adipogenic culture medium (Invitrogen). Alkaline phosphatase staining was performed using the alkaline phosphatase kit and protocol (Sigma-Aldrich) on cultures grown in osteogenic medium for 7 days to detect osteoblasts. Alizarin Red (Sigma-Aldrich) staining was performed for 30 minutes on cultures grown in osteogenic medium for 21 days to detect matrix calcification. Alcian Blue (Sigma) staining was used to stain chondrocyte proteoglycans for 5 minutes in cultures grown in chondrogenic medium for 14 days. Oil Red O (Sigma-Aldrich) staining was performed for 15 minutes on cultures grown in adipogenic medium for 7 days.
Cells were grown in StemPro osteogenic, chondrogenic, or adipogenic culture medium (Invitrogen). Alkaline phosphatase staining was performed using the alkaline phosphatase kit and protocol (Sigma-Aldrich) on cultures grown in osteogenic medium for 7 d to detect osteoblasts. Alizarin Red (Sigma-Aldrich) staining was performed for 30 min on cultures grown in osteogenic medium for 21 d to detect matrix calcification. Alcian Blue (Sigma) staining was used to stain chondrocyte proteoglycans for 5 minutes in cultures grown in chondrogenic medium for 14 d. Oil Red O (Sigma-Aldrich) staining was performed for 15 min on cultures grown in adipogenic medium for 7 d. For in vivo analysis, endothelial cells were labeled with fluorescent quantum dots using the Qtracker 525 Cell Labeling Kit (Invitrogen). Cells were treated in culture to induce EndMT then absorbed into OPLA polylactic acid scaffolds (BD Biosciences). Scaffolds were surgically implanted subcutaneously into immunodeficient nude mice (Nu/Nu strain; Charles River Laboratories). Local injection of StemPro differentiation medium (described above) was performed in the area of the implants every 72 h for 6 weeks. Scaffolds were cryosectioned and stained with Alizarin Red, Alcian Blue, or Oil Red O as described above. All procedures were reviewed and approved by the Institutional Animal Care and Use Committee at Harvard Medical School.

ALK2 with ALK5 = target: T1, ALK2 with ALK5 (Homo sapiens, UniProt Q04771); test: Interaction of ALK2 with ALK5: immunoprecipitation of ALK2, immunoblotting for ALK5; type: cell-based; conditions: 10 ng ml−1, 15 min
T1 construct: endogenous in cells; host or cells: HUVEC
T1 sequence (Q04771 21-509): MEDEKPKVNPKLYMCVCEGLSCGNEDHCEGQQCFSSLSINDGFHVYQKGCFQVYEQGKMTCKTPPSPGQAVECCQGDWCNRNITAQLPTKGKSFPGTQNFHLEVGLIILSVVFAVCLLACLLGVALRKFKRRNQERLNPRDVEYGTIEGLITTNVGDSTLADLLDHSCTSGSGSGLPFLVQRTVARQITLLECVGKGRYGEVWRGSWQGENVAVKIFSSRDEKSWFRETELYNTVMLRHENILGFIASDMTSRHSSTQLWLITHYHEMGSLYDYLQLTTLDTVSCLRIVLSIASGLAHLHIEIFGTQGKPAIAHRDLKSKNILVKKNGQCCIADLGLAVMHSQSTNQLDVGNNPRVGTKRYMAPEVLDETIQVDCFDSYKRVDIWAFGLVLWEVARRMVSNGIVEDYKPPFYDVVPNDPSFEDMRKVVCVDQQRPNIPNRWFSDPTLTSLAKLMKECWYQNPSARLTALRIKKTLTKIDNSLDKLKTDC
Method: Human umbilical vein endothelial cells (HUVEC) and human cutaneous microvascular endothelial cells (HCMEC) isolated as previously described (35). Cells were tested for purity and found to express no markers for lymphatic endothelial cells or stromal cells (pericytes, smooth muscle cells, etc.) (36). This was reconfirmed by flow cytometry analysis (data not shown). Clonal populations were isolated with PYREX 8×8 mm cloning cylinders (Corning) and shown to respond in a manner identical to that of the cultures used for our experiments (FIG. 25B-D). Cells were grown in culture using EGM-2 medium (Cambrex), containing 10% FBS and 1% Penicillin/Streptomycin, followed by human endothelial serum free medium (Gibco) 24 h prior to all experimental conditions. Bone marrow derived mesenchymal stem cells (ScienCell Research Laboratories) were grown in mesenchymal stem cell medium (ScienCell Research Laboratories). Bone marrow derived hematopoietic stem cells (Lonza) were grown in HPGM medium (Lonza). Human corneal fibroblasts, from a stock provided by Dr. Elizabeth Hay (Harvard Medical School), were grown in RPMI medium, containing 10% FBS and 1% Penicillin/Streptomycin. Primary human osteoblasts, chondrocytes, and adipocytes and their respective growth media were obtained from Cell Applications, Inc. […] Recombinant VEGF (R&D Systems) was added to cultures at a concentration of 25 ng ml^-1. Dorsomorphin (Sigma-Aldrich) was added to cultures at a concentration of 5 μM. All experiments for this study were performed at minimum in triplicate. Immunoassays were performed using the following antibodies at concentrations (and using protocols) recommended by the respective manufacturers: […] Stressgen), phospho-Smad2 (3101), Smad2 (3122), phospho-Smad5 (9516), Smad5 (9517; […] Santa Cruz Biotechnology), osterix (ab22552), adiponectin (ab22554), N-cadherin (ab76057), NG2 (ab83508), vWF (ab68545; Abcam); CD31 (IR610; Dako), […]; GenScript); α-SMA ([…]), β-actin (A1978; Sigma-Aldrich). […] Images were acquired using a Nikon 80i fluorescence microscope.

[1] = system: Human umbilical vein endothelial cells (HUVECs) and human cutaneous microvascular endothelial cells (HCMECs); test: Endothelial-mesenchymal transition (EndMT) in endothelial cells: morphology, marker expression by immunoblotting, flow cytometry, real-time PCR, ELISA; type: cell-based
[2] = system: human cutaneous microvascular endothelial cells (HCMEC); test: Differentiation into myocytes, cardiomyocytes and neurons (immunoblotting); type: cell-based; conditions: 10 ng/ml, 48 hours, then myogenic, cardiomyogenic or neurogenic medium 14 days
Method: Cardiomyogenic medium was purchased from Millipore Inc., (SCM-102).
Myogenic medium consisted of human endothelial serum-free medium supplemented with 5% horse serum, 0.1 μM dexamethasone, and 50 μM hydrocortisone (previously described by Gang et al, 2004).
Neurogenic medium consisted human endothelial serum-free medium supplemented with 100 ng/ml bFGF (previously described by Jiang et al., 2002). Endothelial cells converted into mesenchymal stem-like cells by treatment with 10 ng/ml TGF-β2 for 48 hours were plated on fibronectin-coated polystyrene wells in the neurogenic medium.

ALK5 in ALK2 immunoprecipitates (ALK2 with ALK5)	Substance	alkaline phosphatase staining (osteoblasts) (HUVEC and HCMEC)	alizarin red staining (matrix calcification) (HUVEC and HCMEC)	gene expression of osteocalcin, osterix, COL2A1, SOX9, adiponectin, PPARγ2 (real-time quantitative PCR) (HUVEC and HCMEC)	differentiation by alkaline phosphatase, alizarin red, alcian blue or oil red O staining (HUVEC and HCMEC)	protein expression of osterix, SOX9 and PPARγ2 (immunoblotting) (HUVEC and HCMEC)	TIE2 expression in osteoblasts, chondrocytes and adipocytes derived from endothelial cells (immunoblotting) (HUVEC and HCMEC)	expression of endothelial markers TIE2, vWF, VE-cadherin, TIE1 in osteoblasts, chondrocytes, adipocytes derived from endothelial cells (immunoblot) (HUVEC and HCMEC)	TIE2 levels after 96 h of treatment [1]	staining of clonal populations for osteoblasts, chondrocytes or adipocytes (AP, AR, AB, OR) (HUVEC and HCMEC; three clonal populations of HUVEC and HCMEC, differentiation medium)	expression of MyoD1, cardiac troponin I or neurofilament-L (immunoblotting) [2]
presence of ALK5	BMP4: Recombinant BMP4 protein (R&D Systems), ALK2 activating ligand, used at 10 ng/mL	strong positive staining	high levels of matrix calcification	dramatic increases	differentiated into other cell types	increases in protein expression	strong expression of TIE2	showed expression of these endothelial markers	small decrease; also recorded: slight decrease		
presence of ALK5	TGF-β2: Recombinant TGF-β2 protein (R&D Systems), ALK2 activating ligand, used at 10 ng/mL	strong positive staining	high levels of matrix calcification	dramatic increases	differentiated into other cell types	increases in protein expression	strong expression of TIE2	showed expression of these endothelial markers	small decrease; also recorded: slight decrease	stained positive	did express these markers

Source: patent US20130078718A1, “CONVERSION OF VASCULAR ENDOTHELIAL CELLS INTO MULTIPOTENT STEM-LIKE CELLS” (PRESIDENT AND FELLOWS OF HARVARD COLLEGE, priority 2010, published 2013)
